# Test results as given in US20100056535A1, “Inhibitors of HIV-1 reverse transcriptase” (Roche Palo Alto LLC, priority 2008, published 2010).
# Read-outs that look alike come from different tables or passages of the source.
# How the values were obtained:
# HIV-1 RT = HIV-1 RT (Human immunodeficiency virus type 1 group M subtype B, UniProt P03366); test: Heteropolymer HIV Reverse Transcriptase Assay: Inhibitor IC50 Determination; assay type: biochemical
# Description: Heteropolymer HIV Reverse Transcriptase Assay: Inhibitor IC50 Determination
# HIV-1 RT assay was carried out in 96-well Millipore MultiScreen MADVNOB50 plates using purified recombinant enzyme and a poly(rA)/oligo(dT)16 template-primer in a total volume of 50 μL. The assay constituents were 50 mM Tris/HCl, 50 mM NaCl, 1 mM EDTA, 6 mM MgCl2, 5 μM dTTP, 0.15 μCi [^3H] dTTP, 5 μg/ml poly (rA) pre annealed to 2.5 μg/ml oligo (dT)16 and a range of inhibitor concentrations in a final concentration of 10% DMSO. Reactions were initiated by adding 4 nM HIV-1 RT and after incubation at 37° C. for 30 min, they were stopped by the addition of 50 μl ice cold 20% TCA and allowed to precipitate at 4° C. for 30 min. The precipitates were collected by applying vacuum to the plate and sequentially washing with 3×200 μl of 10% TCA and 2×200 μl 70% ethanol. Finally, the plates were dried and radioactivity counted in a Packard TopCounter after the addition of 25 μl scintillation fluid per well. IC50's were calculated by plotting % inhibition versus log10 inhibitor concentrations. Representative IC50 data is depicted in TABLE 2.
# [1] = system: HXB2-strain of HIV-1 in MT4 cells; test: Antiviral assay: protection of HIV-1-infected MT4 cells from cell death (MTT); assay type: cell-based
# Description: Anti-HIV-1 antiviral activity was assessed using an adaptation of the method of Pauwels et al. (Pauwels et al., J Virol Methods 1988 20:309-321). The method is based on the ability of compounds to protect HIV-1-infected T lymphoblastoid cells (MT4 cells) from cell-death mediated by the infection. The endpoint of the assay was calculated as the concentration of compound at which the cell viability of the culture was preserved by 50% (‘50% inhibitory concentration’, IC50). The cell viability of a culture was determined by the uptake of soluble, yellow 3-[4,5-dimethylthiazol-2-yl]-2,5-diphenyltetrazolium bromide (MTT) and its reduction to a purple insoluble formazan salt. After solubilization, spectrophotometric methods were employed to measure the amount of formazan product.
# MT4 cells were prepared to be in logarithmic-phase growth and a total of 2×10^6 cells infected with the HXB2-strain of HIV-1 at a multiplicity of 0.0001 infectious units of virus per cell in a total volume of between 200-500 microliters. The cells were incubated with virus for one hour at 37° C. before removal of virus. The cells are then washed in 0.01 M phosphate buffered saline, pH 7.2 before being resuspensed in culture medium for incubation in culture with serial dilutions of test compound. The culture medium used was RPMI 1640 without phenol red, supplemented with penicillin, streptomycin, L-glutamine and 10% fetal calf serum (GM10).
# Test compounds were prepared as 2 mM solutions in dimethyl sulfoxide (DMSO). Four replicate, serial 2-fold dilutions in GM10 were then prepared and 50 microliters amounts placed in 96-well plates over a final nanomolar concentration range of 625-1.22. Fifty microliters GM10 and 3.5×10^4 infected cells were then added to each well. Control cultures containing no cells (blank), uninfected cells (100% viability; 4 replicates) and infected cells without compound (total virus-mediated cell death; 4 replicates) were also prepared. The cultures were then incubated at 37° C. in a humidified atmosphere of 5% CO2 in air for 5 days.
# A fresh solution of 5 mg/mL MTT was prepared in 0.01 M phosphate buffered saline, pH 7.2 and 20 microliters added to each culture. The cultures were further incubated as before for 2 hours. They were then mixed by pipetting up and down and 170 microliters of Triton X-100 in acidified isopropanol (10% v/v Triton X-100 in 1:250 mixture of concentrated HCl in isopropanol). When the formazan deposit was fully solubilized by further mixing, the absorbance (OD) of the cultures was measured at 540 nm and 690 nm wavelength (690 nm readings were used as blanks for artifacts between wells). The percent protection for each treated culture was then calculated from the equation: […]
# The IC50 can be obtained from graph plots of percent protection versus log10 drug concentration.
# [2] = purified recombinant enzyme, poly(rA)/oligo(dT)16 template-primer, read-out: Polymerase Inhibition IC50
# [3] = Human immunodeficiency virus 1, HXB2, MT4, read-out: IC50 Antiviral wt:fbs:10%
# [4] = Human immunodeficiency virus 1, HXB2, wild type virus, MT4 cells, 10% fetal calf serum, read-out: IC50 Antiviral wt:fbs:10%
SMILES,IC50 (HIV-1 RT; [2]),"IC50 [1, 3]","IC50 [1, 4]",IC50 (HIV-1 RT)
"N#Cc1cc(Cl)cc(Oc2cc(CCc3nc4ccccc4o3)[nH]c(=O)c2Cl)c1 [Compound I-19, 3-[6-(2-Benzooxazol-2-yl-ethyl)-3-chloro-2-oxo-1,2-dihydro-pyridin-4-yloxy]-5-chloro-benzonitrile]",6.3 nM,6.9 nM,,
"N#Cc1cc(Cl)cc(Oc2c(F)c(CCc3ccncc3)[nH]c(=O)c2Br)c1 [Compound I-20, 3-[3-Bromo-5-fluoro-2-oxo-6-(2-pyridin-4-yl-ethyl)-1,2-dihydro-pyridin-4-yloxy]-5-chloro-benzonitrile]",1.5 nM,4.4 nM,,
"C=Cc1c(Oc2cc(Cl)cc(C#N)c2)c(CC)c[nH]c1=O [II-3, 3-Chloro-5-(5-ethyl-2-oxo-3-vinyl-1,2-dihydro-pyridin-4-yloxy)-benzonitrile]",5.6 nM,,3.3 nM,
"CCc1c(C)[nH]c(=O)c(Br)c1Oc1cc(Cl)cc(C#N)c1 [II-6, 3-(3-Bromo-5-ethyl-6-methyl-2-oxo-1,2-dihydro-pyridin-4-yloxy)-5-chloro-benzonitrile]",7.3 nM,,2.4 nM,
"N#Cc1cc(Cl)cc(Oc2c(CSCc3ccccc3)c[nH]c(=O)c2Br)c1 [II-18, 3-(5-Benzylsulfanylmethyl-3-bromo-2-oxo-1,2-dihydro-pyridin-4-yloxy)-5-chloro-benzonitrile]",,,4.2 nM,0.4 nM
